Test system: 616215-338-R-J1-PDC complex spheroids, viability % test/control
Experiment: Anticancer human tumor 616215-338-R-J1-PDC patient-derived colon adenocarcinoma cell line growth inhibition [CLK]
Conditions: for IC50: curve of first compound; for viability, T/C: stronger effect = lower value
How it was run: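 Patient-derived tumor cells grown as complex spheroids with HUVEC endothelial cells and mesenchymal stem cells, treated with drug combinations. Concentrations descend in half-log steps from near clinical Cmax, or from 10 microM if Cmax unknown.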

[1] = second compound 0.0316 µM, first compound 0.0316 µM
[2] = second compound 0.0316 µM, first compound 0.1 µM
[3] = second compound 0.1 µM, first compound 0.0316 µM
[4] = second compound 0.1 µM, first compound 0.1 µM
[5] = second compound 0.316 µM, first compound 0.0316 µM
[6] = second compound 0.316 µM, first compound 0.1 µM
[7] = second compound 1 µM, first compound 0.0316 µM
[8] = second compound 1 µM, first compound 0.1 µM
[9] = second compound 3.16 µM, first compound 0.0316 µM
[10] = second compound 3.16 µM, first compound 0.1 µM
[11] = second compound 10 µM, first compound 0.0316 µM
[12] = second compound 10 µM, first compound 0.1 µM
[13] = second compound 0.0316 µM, first compound 0.316 µM
[14] = second compound 0.0316 µM, first compound 1 µM
[15] = second compound 0.0316 µM, first compound 3.16 µM
[16] = second compound 0.0316 µM, first compound 10 µM
[17] = second compound 0.1 µM, first compound 0.316 µM
[18] = second compound 0.1 µM, first compound 1 µM
[19] = second compound 0.1 µM, first compound 3.16 µM
[20] = second compound 0.1 µM, first compound 10 µM
[21] = second compound 0.316 µM, first compound 0.316 µM
[22] = second compound 0.316 µM, first compound 1 µM
[23] = second compound 0.316 µM, first compound 3.16 µM
[24] = second compound 0.316 µM, first compound 10 µM
[25] = second compound 1 µM, first compound 0.316 µM
[26] = second compound 1 µM, first compound 1 µM
[27] = second compound 1 µM, first compound 3.16 µM
[28] = second compound 1 µM, first compound 10 µM
[29] = second compound 3.16 µM, first compound 0.316 µM
[30] = second compound 3.16 µM, first compound 1 µM
[31] = second compound 3.16 µM, first compound 3.16 µM
[32] = second compound 3.16 µM, first compound 10 µM
[33] = second compound 10 µM, first compound 0.316 µM
[34] = second compound 10 µM, first compound 1 µM
[35] = second compound 10 µM, first compound 3.16 µM
[36] = second compound 10 µM, first compound 10 µM
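Also: spheroids exposed to agents for 7 days.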
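For viability, T/C in this document: 100% = DMSO vehicle wells.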

**Q.** Which results are given for `Cn1ncnc1[C@H]1c2n[nH]c(=O)c3cc(F)cc(c23)N[C@@H]1c1ccc(F)cc1` + CN1CCN(c2cc(C(=O)Nc3cc4cc(-c5cnn(C)c5)ccc4cn3)ccn2)CC1?
**A.** IC50 (second compound 0.0316 µM): > 100 nM; IC50 (second compound 0.1 µM): > 100 nM; IC50 (second compound 0.316 µM): < 0.316 nM; IC50 (second compound 1 µM): < 0.316 nM; IC50 (second compound 3.16 µM): < 0.316 nM; IC50 (second compound 10 µM): < 0.316 nM; viability, T/C (second compound 0.0316 µM, first compound 0.000316 µM): 113%; viability, T/C (second compound 0.0316 µM, first compound 0.001 µM): 96.3%; viability, T/C (second compound 0.0316 µM, first compound 0.00316 µM): 99.7%; viability, T/C (second compound 0.0316 µM, first compound 0.01 µM): 122%; viability, T/C [1]: 98.3%; viability, T/C [2]: 112%; viability, T/C (second compound 0.1 µM, first compound 0.000316 µM): 119%; viability, T/C (second compound 0.1 µM, first compound 0.001 µM): 106%; viability, T/C (second compound 0.1 µM, first compound 0.00316 µM): 102%; viability, T/C (second compound 0.1 µM, first compound 0.01 µM): 105%; viability, T/C [3]: 101%; viability, T/C [4]: 69.5%; viability, T/C (second compound 0.316 µM, first compound 0.000316 µM): 29.3%; viability, T/C (second compound 0.316 µM, first compound 0.001 µM): 35.2%; viability, T/C (second compound 0.316 µM, first compound 0.00316 µM): 39.2%; viability, T/C (second compound 0.316 µM, first compound 0.01 µM): 38.7%; viability, T/C [5]: 36.5%; viability, T/C [6]: 32%; viability, T/C (second compound 1 µM, first compound 0.000316 µM): 0.12%; viability, T/C (second compound 1 µM, first compound 0.001 µM): 0.14%; viability, T/C (second compound 1 µM, first compound 0.00316 µM): 1.57%; viability, T/C (second compound 1 µM, first compound 0.01 µM): 0.1%; viability, T/C [7]: 1.12%; viability, T/C [8]: 4.26%; viability, T/C (second compound 3.16 µM, first compound 0.000316 µM): 0.1%; viability, T/C (second compound 3.16 µM, first compound 0.001 µM): 0.14%; viability, T/C (second compound 3.16 µM, first compound 0.00316 µM): 2.13%; viability, T/C (second compound 3.16 µM, first compound 0.01 µM): 0.09%; viability, T/C [9]: 0.08%; viability, T/C [10]: 1.74%; viability, T/C (second compound 10 µM, first compound 0.000316 µM): 0.12%; viability, T/C (second compound 10 µM, first compound 0.001 µM): 0.17%; viability, T/C (second compound 10 µM, first compound 0.00316 µM): 0.13%; viability, T/C (second compound 10 µM, first compound 0.01 µM): 0.13%; viability, T/C [11]: 1.65%; viability, T/C [12]: 0.15%

**Q.** For `Nc1ccn(C2OC(CO)C(O)C2(F)F)c(=O)n1` (stereo unspecified) + CN1CCN(c2cc(C(=O)Nc3cc4cc(-c5cnn(C)c5)ccc4cn3)ccn2)CC1, which IC50 (second compound 0.0316 µM) is on record?
**A.** < 31.6 nM

**Q.** And the IC50 (second compound 0.1 µM)?
**A.** < 31.6 nM

**Q.** And the IC50 (second compound 0.316 µM)?
**A.** < 31.6 nM

**Q.** What about the IC50 (second compound 1 µM) of the same molecule?
**A.** < 31.6 nM

**Q.** And the IC50 (second compound 3.16 µM)?
**A.** < 31.6 nM

**Q.** And the IC50 (second compound 10 µM)?
**A.** < 31.6 nM

**Q.** What about the viability, T/C [1] of the same molecule?
**A.** 15.5%

**Q.** What about the viability, T/C [2] of the same molecule?
**A.** 10.3%

**Q.** What about the viability, T/C [13] of the same molecule?
**A.** 14.1%

**Q.** What about the viability, T/C [14] of the same molecule?
**A.** 13.6%

**Q.** And the viability, T/C [15]?
**A.** 14.3%

**Q.** And the viability, T/C [16]?
**A.** 12.7%

**Q.** And the viability, T/C [3]?
**A.** 18%

**Q.** What about the viability, T/C [4] of the same molecule?
**A.** 14.5%

**Q.** And the viability, T/C [17]?
**A.** 14%

**Q.** And the viability, T/C [18]?
**A.** 14.3%

**Q.** What about the viability, T/C [19] of the same molecule?
**A.** 17%

**Q.** What about the viability, T/C [20] of the same molecule?
**A.** 18%

**Q.** And the viability, T/C [5]?
**A.** 13.8%

**Q.** What about the viability, T/C [6] of the same molecule?
**A.** 11%

**Q.** And the viability, T/C [21]?
**A.** 13.8%

**Q.** What about the viability, T/C [22] of the same molecule?
**A.** 10.6%

**Q.** And the viability, T/C [23]?
**A.** 12.1%

**Q.** What about the viability, T/C [24] of the same molecule?
**A.** 13.3%

**Q.** And the viability, T/C [7]?
**A.** 0.1%

**Q.** What about the viability, T/C [8] of the same molecule?
**A.** 0.13%

**Q.** And the viability, T/C [25]?
**A.** 2.94%

**Q.** What about the viability, T/C [26] of the same molecule?
**A.** 0.12%

**Q.** What about the viability, T/C [27] of the same molecule?
**A.** 1.83%

**Q.** And the viability, T/C [28]?
**A.** 1.85%

**Q.** What about the viability, T/C [9] of the same molecule?
**A.** 0.1%

**Q.** What about the viability, T/C [10] of the same molecule?
**A.** 0.13%

**Q.** And the viability, T/C [29]?
**A.** 0.14%

**Q.** And the viability, T/C [30]?
**A.** 0.09%

**Q.** And the viability, T/C [31]?
**A.** 0.1%

**Q.** And the viability, T/C [32]?
**A.** 0.11%

**Q.** And the viability, T/C [11]?
**A.** 0.15%

**Q.** What about the viability, T/C [12] of the same molecule?
**A.** 1.73%

**Q.** And the viability, T/C [33]?
**A.** 0.16%

**Q.** And the viability, T/C [34]?
**A.** 2%

**Q.** And the viability, T/C [35]?
**A.** 3.33%

**Q.** And the viability, T/C [36]?
**A.** 0.18%

**Q.** Which results are given for `O=C(c1cc(Cc2n[nH]c(=O)c3ccccc23)ccc1F)N1CCN(C(=O)C2CC2)CC1` + CN1CCN(c2cc(C(=O)Nc3cc4cc(-c5cnn(C)c5)ccc4cn3)ccn2)CC1?
**A.** IC50 (second compound 0.0316 µM): > 10000 nM; IC50 (second compound 0.1 µM): > 10000 nM; IC50 (second compound 0.316 µM): < 31.6 nM; IC50 (second compound 1 µM): < 31.6 nM; IC50 (second compound 3.16 µM): < 31.6 nM; IC50 (second compound 10 µM): < 31.6 nM; viability, T/C [1]: 99.4%; viability, T/C [2]: 113%; viability, T/C [13]: 100%; viability, T/C [14]: 96.6%; viability, T/C [15]: 103%; viability, T/C [16]: 67.3%; viability, T/C [3]: 114%; viability, T/C [4]: 110%; viability, T/C [17]: 98.9%; viability, T/C [18]: 107%; viability, T/C [19]: 82.9%; viability, T/C [20]: 55.4%; viability, T/C [5]: 34.9%; viability, T/C [6]: 44.1%; viability, T/C [21]: 31.3%; viability, T/C [22]: 40.5%; viability, T/C [23]: 30.6%; viability, T/C [24]: 29.3%; viability, T/C [7]: 0.12%; viability, T/C [8]: 0.17%; viability, T/C [25]: 0.13%; viability, T/C [26]: 0.1%; viability, T/C [27]: 1.83%; viability, T/C [28]: 0.09%; viability, T/C [9]: 0.09%; viability, T/C [10]: 0.15%; viability, T/C [29]: 0.12%; viability, T/C [30]: 0.1%; viability, T/C [31]: 0.12%; viability, T/C [32]: 0.19%; viability, T/C [11]: 0.11%; viability, T/C [12]: 0.14%; viability, T/C [33]: 0.18%; viability, T/C [34]: 0.13%; viability, T/C [35]: 0.23%; viability, T/C [36]: 1.83%

— PubChem BioAssay AID2060610 (Molecular Pharmacology Branch, DTP, NCI, 2025)
